From patent US20080312435A1, “Imine Compound” (TAISHO PHARMACEUTICAL CO., LTD., priority 2004, published 2008) come the findings set out here.

`Cn1c(C2CC2)c/c(=N\C(=O)c2cccc(C(F)(F)F)c2F)n1-c1ccccc1` came in with a melting point of 168.5 to 169.5 °C.
`Cn1c(C(C)(C)C)c/c(=N\C=O)n1CC1CC1`: the melting point was 122 to 124 °C.
Molecule `Cc1c(C(C)(C)C)s/c(=N\C(=O)c2cccc(C#N)c2)n1C` displayed a melting point of 131 to 133 °C.
With `Cn1c(C(C)(C)C)c/c(=N\C(=O)c2cccc(OC(F)(F)C(F)F)c2)n1CC1CC1`, the melting point was 110 to 111 °C.
The value for `Cc1s/c(=N\C(=O)c2cccc(C(F)(F)F)c2F)n(C)c1C` was 182 to 183 °C; that for `COc1cc(Cl)ccc1C(=O)/N=c1\cc(C(C)(C)C)n(C)n1CC1CC1` was 128 to 129 °C.
The value for `Cc1ccccc1C(=O)/N=c1\sc2cc(F)ccc2n1CC1CC1` was 143 to 145 °C; that for `O=C(/N=c1\c(F)cc(F)cn1CC1CC1)c1cccc(C(F)(F)F)c1F` was 69 to 71 °C; that for `O=C(/N=c1\ccccn1CC1CC1)c1cc(Cl)ccc1Cl` was 53.5 to 54.5 °C.
The value for `Cc1s/c(=N\C(=O)c2cccc(C(F)(F)F)c2)n(C)c1C` was 110 to 111 °C; that for `Cc1c(C(=O)O)s/c(=N\C(=O)c2cccc(C(F)(F)F)c2)n1CC1CC1` was 291 to 293 °C; that for `Cn1c(C(C)(C)C)c/c(=N\C(=O)c2ccccc2C(F)(F)F)n1CC1CC1` was 83 to 85 °C.
As for `Cc1cccc(C(=O)/N=c2\cc(C(C)(C)C)n(C)n2CC2CC2)c1Br`, the melting point was in the range of 153 to 155 °C.
To `Cc1s/c(=N\C(=O)C(F)(F)C(F)(F)C(F)(F)F)n(CC2CC2)c1C` belongs 92 to 94 °C; to `Cc1s/c(=N\C(=O)c2cccc(C(F)(F)F)c2)n(CC2CC2)c1-c1ccccc1`, 161 to 162 °C.
`Cc1c(C(C)(C)C)s/c(=N\C(=O)c2cc(C(F)(F)F)ccc2F)n1C` showed a melting point of 140 to 142 °C.
On to `COCCn1c(C)c(C)s/c1=N\C(=O)c1cccc(C(F)(F)F)c1`, for which the melting point lay in the range of 64 to 66 °C.
`Cc1c/c(=N\C(=O)c2cccc(C(F)(F)F)c2F)n(CCC2CC2)n1C` registered a melting point of 97 to 98 °C.
The value for `CCn1c(C)c(C(C)(C)C)s/c1=N\C(=O)c1cccc(C(F)(F)F)c1` was 158 to 160 °C; that for `O=C(/N=c1\ccccn1CC1CC1)c1cc(F)ccc1C(F)(F)F` was 88.5 to 89 °C.
In the case of `Cc1s/c(=N\C(=O)c2ccc(F)cc2C(F)(F)F)n(CC2CC2)c1C`, the melting point is 143 to 144 °C.
`Cc1c(C(C)(C)C)s/c(=N\C(=O)c2cc(F)cc(C(F)(F)F)c2)n1CC1CC1`: the melting point was 100 to 102 °C.
`COc1ccc(C(F)(F)F)cc1C(=O)/N=c1\oc(C(C)C)c(C)n1CC1CC1` yielded a melting point of 118 to 120 °C.
In turn, `Cn1c(C(C)(C)C)c/c(=N\C(=S)Nc2ccc(F)cc2)n1CC1CC1` returned a melting point of 147.5 to 149.5 °C.
The value for `Cn1c(C(C)(C)C)c/c(=N\S(=O)(=O)c2cccc(C(F)(F)F)c2)n1CC1CC1` was 121 to 122 °C.
`Cc1c(C(C)(C)C)s/c(=N\C(=O)c2cccc(C(F)(F)F)c2)n1CCO` displayed a melting point of 147 to 149 °C.
The value for `Cc1c(C(C)(C)C)s/c(=N\C(=O)c2cccc(F)c2F)n1C` was 176 to 178 °C.
In turn, `Cc1c(C(C)(C)C)s/c(=N\C(=O)c2cncc(Br)c2)n1CC1CC1` displayed a melting point of 152 to 154 °C.
As to `CCn1cc(C)s/c1=N\C(=O)c1cccc(C(F)(F)F)c1F`, the melting point fell in the range of 90 to 92 °C.
`Cc1c(C(C)(C)C)s/c(=N\C(=O)Cc2ccccc2)n1CC1CC1` had a melting point of 92 to 94 °C.
To `CCN(CC)c1ccc(C(=O)/N=c2\sc(C(C)(C)C)c(C)n2CC2CC2)cc1` belongs 134 to 136 °C.
The molecule `Cc1c/c(=N\C(=O)c2cccc(C(F)(F)F)c2F)n(CCOC(C)C)n1C` came in with a melting point of 88 to 90 °C.
The value for `COc1ccc/c(=N\C(=O)c2cccc(C(F)(F)F)c2F)n1CC1CC1` was 126 to 128 °C.
`CCn1c(C)c(Cl)s/c1=N\C(=O)c1cccc(C(F)(F)F)c1F` yielded a melting point of 158 to 160 °C.
To `CC(C)(C)c1nn(CC2CC2)/c(=N/C(=O)c2cnccc2Cl)s1` belongs 62 to 63 °C; to `Cc1c(C(C)(C)C)s/c(=N\C(=O)c2cccc(N3CCOCC3)c2)n1CC1CC1`, 114 to 115 °C.
On to `Cn1cccc/c1=N\C(=O)c1cccc(C(F)(F)F)c1F`, for which the melting point fell in the range of 146 to 147 °C.
To `Cc1c(C(C)(C)C)s/c(=N\C(=O)c2cccc(C(=O)O)c2)n1C` belongs 250 to 252 °C; to `Cc1c(C(C)C)o/c(=N\C(=O)c2cc(C(F)(F)F)ccc2F)n1CC1CC1`, 76 to 78 °C.
The value for `COC(=O)c1ccc(C(=O)/N=c2\sc(C(C)(C)C)c(C)n2CC2CC2)cc1` was 122 to 123 °C.
The value for `Cn1c(C(C)(C)C)c/c(=N\C(=O)c2cc(Cl)ccc2Cl)n1CC1CC1` was 164 to 165 °C.
Consider `CCn1c(C)cs/c1=N\C(=O)c1cccc(C(F)(F)F)c1F`, for which the melting point was 48 to 50 °C.
The value for `Cc1c(C(C)(C)C)s/c(=N\C(=O)c2cccnc2N2CCCC2)n1CC1CC1` was 97 to 98 °C.
Regarding `Cc1ccccc1C(=O)/N=c1/sc2cccc(Cl)c2n1CC1CC1`, the melting point is 146 to 148 °C.
To `Cc1s/c(=N\C(=O)c2cc(Cl)ccc2Cl)n(CC2CC2)c1C` belongs 113 to 115 °C.
Consider `CCn1cccc/c1=N\C(=O)c1cccc(C(F)(F)F)c1F`, for which the melting point was in the range of 93 to 95 °C.
In the case of `CCN(CC)c1cccc(C(=O)/N=c2\sc(C(C)(C)C)c(C)n2CC2CC2)c1`, the melting point lay in the range of 89 to 90 °C.
To `CCOCCn1/c(=N/C(=O)c2cccc(C(F)(F)F)c2F)cc(C)n1C` belongs 136 to 137 °C; to `Cc1c(C(C)(C)C)s/c(=N\C(=O)c2cccc(C(F)(F)F)c2)n1C`, 140 to 142 °C.
To `O=C(/N=c1\ccccn1CC1CC1)c1cc(C(F)(F)F)ccc1F` belongs 127 to 127.5 °C.
Take `Cc1c(C(C)(C)C)s/c(=N\C(=O)c2cccc(C(F)(F)F)c2)n1CCN`: the melting point lay in the range of 76 to 78 °C.
As to `CC[C@H](C(=O)/N=c1\sc(C)c(C)n1CC1CC1)c1ccccc1` (racemic), the melting point lay in the range of 108 to 110 °C.
To `Cc1c(C(C)(C)C)s/c(=N\C(=O)Cc2cccs2)n1CC1CC1` belongs 157 to 159 °C; to `CCc1ccnc(C(=O)/N=c2\sc(C(C)(C)C)c(C)n2CC2CC2)c1`, 104 to 106 °C; to `Cn1c(C(C)(C)C)c/c(=N\C(=O)c2cccc(Br)c2F)n1CC1CC1`, 127 to 128 °C.
Take `CCC(CC)C(=O)/N=c1\sc(C)c(C)n1CC1CC1`: the melting point was in the range of 67 to 69 °C.
Molecule `Cc1c(C(=O)N(C)C)s/c(=N\C(=O)c2cccc(C(F)(F)F)c2)n1CC1CC1` had a melting point of 138 to 140 °C.
In the case of `CC(C)n1cccc/c1=N\C(=O)c1cccc(C(F)(F)F)c1F`, the melting point is 86 to 88 °C.
The molecule `Cc1c(C(C)(C)C)s/c(=N\C(=O)c2ccccc2)n1CC1CC1` came in with a melting point of 106 to 107 °C.
Molecule `COc1ccc(OC)c(CC(=O)/N=c2\sc(C(C)(C)C)c(C)n2CC2CC2)c1` showed a melting point of 89 to 91 °C.

A word on the melting point: it is the temperature of the solid-liquid transition.
